Laboratory results from ChEMBL document CHEMBL1132770, “Selective kappa-opioid antagonists related to naltrindole. Effect of side-chain spacer in the 5'-amidinoalkyl series” (Bioorg Med Chem Lett, 2000).

Legend:
Mu-type opioid receptor [1] = target: T1, Mu-type opioid receptor (Homo sapiens, UniProt P35372); assay: Compound was evaluated for its binding affinity by displacing DAMGO to human cloned mu opioid receptor transfected into CHO cells using [35S]GTP-gamma-S, assay; type: functional, cell-based
Mu-type opioid receptor [2] = target: T1, Mu-type opioid receptor; assay: Compound was evaluated for its binding affinity against CHO cells transfected with cloned human Opioid receptor mu 1 by displacing [3H]DAMGO; type: cell-based
[3] = target: T2, Delta-type opioid receptor (Homo sapiens, UniProt P41143); assay: Compound was evaluated for functional opioid activity by stimulation of [35S]GTP-gamma-S, in cloned human Opioid receptor delta 1 transfected into CHO cells; type: cell-based
[4] = target: T2, Delta-type opioid receptor; assay: Compound was evaluated for its binding affinity to CHO cells expressing cloned human Opioid receptor delta 1 by displacement of [3H]Cl-DPDPE; type: cell-based
[5] = target: T3, Kappa-type opioid receptor (Homo sapiens, UniProt P41145); assay: Compound was evaluated for its binding affinity to CHO cells expressing cloned human Opioid receptor kappa 1 by displacing [3H]U-69593; type: cell-based
[6] = target: T3, Kappa-type opioid receptor; assay: Compound was evaluated for its binding affinity by displacing [3H]U-69593 to human cloned Kappa opioid receptor transfected into CHO cells using [35S]GTP-gamma-S, assay; type: functional, cell-based
Mu-type opioid receptor [7] = target: Mu-type opioid receptor (Cavia porcellus, UniProt P97266); assay: Compound was evaluated for its binding affinity against Opioid receptor mu 1 of guinea pig brain membrane by displacing [3H]DAMGO
[8] = target: T2, Delta-type opioid receptor; assay: Compound was evaluated for its binding affinity to CHO cells expressing cloned human Opioid receptor delta 1 by displacement of [3H]-Cl-DPDPE; type: cell-based

T3 sequence (P41145 whole entry): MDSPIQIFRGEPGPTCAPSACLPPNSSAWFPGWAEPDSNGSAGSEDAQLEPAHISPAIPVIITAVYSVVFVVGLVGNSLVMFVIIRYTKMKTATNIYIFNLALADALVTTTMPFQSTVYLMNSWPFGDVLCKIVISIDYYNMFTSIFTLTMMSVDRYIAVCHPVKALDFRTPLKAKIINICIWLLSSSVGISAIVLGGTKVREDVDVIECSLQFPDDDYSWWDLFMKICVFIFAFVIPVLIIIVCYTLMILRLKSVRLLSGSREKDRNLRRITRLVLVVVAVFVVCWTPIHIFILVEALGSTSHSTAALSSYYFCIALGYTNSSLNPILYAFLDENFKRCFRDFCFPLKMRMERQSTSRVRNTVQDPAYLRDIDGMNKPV
T2 sequence (P41143 whole entry): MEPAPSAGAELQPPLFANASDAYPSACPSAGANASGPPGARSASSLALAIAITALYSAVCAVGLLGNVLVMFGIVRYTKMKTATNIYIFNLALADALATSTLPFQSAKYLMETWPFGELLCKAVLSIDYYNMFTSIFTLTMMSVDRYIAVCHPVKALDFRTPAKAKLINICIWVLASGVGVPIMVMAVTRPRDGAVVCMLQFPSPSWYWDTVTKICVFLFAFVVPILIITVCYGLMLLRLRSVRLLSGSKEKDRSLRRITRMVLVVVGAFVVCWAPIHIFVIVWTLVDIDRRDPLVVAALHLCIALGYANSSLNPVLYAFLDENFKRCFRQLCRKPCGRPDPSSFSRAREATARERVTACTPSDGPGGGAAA
T1 sequence (P35372 whole entry): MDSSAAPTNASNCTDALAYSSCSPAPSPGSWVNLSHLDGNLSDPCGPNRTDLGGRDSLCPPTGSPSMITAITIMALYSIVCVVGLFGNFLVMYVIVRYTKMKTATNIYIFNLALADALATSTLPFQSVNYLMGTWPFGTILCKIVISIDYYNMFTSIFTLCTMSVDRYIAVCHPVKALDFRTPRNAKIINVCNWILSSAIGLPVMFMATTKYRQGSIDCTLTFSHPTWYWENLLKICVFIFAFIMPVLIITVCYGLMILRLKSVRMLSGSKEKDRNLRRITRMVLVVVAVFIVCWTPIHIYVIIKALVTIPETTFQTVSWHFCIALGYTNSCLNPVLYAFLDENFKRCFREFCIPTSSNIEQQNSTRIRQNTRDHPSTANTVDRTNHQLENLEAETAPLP
Mu-type opioid receptor (Cavia porcellus, UniProt P97266), sequence (P97266 whole entry): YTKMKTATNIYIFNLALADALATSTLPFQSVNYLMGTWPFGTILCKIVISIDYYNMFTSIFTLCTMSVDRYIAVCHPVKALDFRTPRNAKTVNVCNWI

Row | SMILES | Ki (Mu-type opioid receptor [1]) [nM] | Ki (Mu-type opioid receptor [2]) [nM] | Ki [3] [nM] | Ki [4] [nM] | Ki [5] [nM] | Ki [6] [nM] | Ki (Mu-type opioid receptor [7]) [nM] | Ki [8] [nM]
1 | CCCCC(=N)NCCc1ccc2[nH]c3c(c2c1)C[C@@]1(O)C2Cc4ccc(O)c5c4C1(CCN2CC1CC1)C3O5 (some centres undefined) | 5.33 | 219 | 3.31 | 38.2 | 0.3 | 0.17 |  | 
2 | NCCc1ccc2[nH]c3c(c2c1)C[C@@]1(O)C2Cc4ccc(O)c5c4C1(CCN2CC1CC1)C3O5 (some centres undefined) | 17.4 | 29.6 | 3.79 | 28.2 | 1.08 | 0.12 |  | 
3 | CCCCC(=N)NCc1ccc2[nH]c3c(c2c1)C[C@@]1(O)C2Cc4ccc(O)c5c4C1(CCN2CC1CC1)C3O5 (some centres undefined) |  |  |  |  |  |  | 3.5 | 5.5
